Experimental data reported in patent EP0466548A1, “1,2,3,4,5,6-Hexahydroazepino[4,5-b]indole and 1,2,3,4-tetrahydro-beta-carbolines, processes for their preparation, and pharmaceutical compositions containing them” (ADIR ET COMPAGNIE, priority 1990, dated 1992).

Assays:
[1] = system: rats mâles, Sprague Dawley; assay: Anti-inflammatory activity: carrageenan-induced paw oedema (plethysmography); format: in vivo, rat; details: 30 to 60 min before carrageenan, paw volume 3 h after carrageenan
Method: Le potentiel antiinflammatoire des composés a été recherché selon un modèle d'inflammation aigue provoquée par injection sous cutanée de carragénine au niveau de la patte postérieure du rat selon une technique inspirée de WINTER et coll. […] J. Phamacol.
Les rats mâles, Sprague Dawley de 200 à 300 g sont randomisés en lots de 10 et reçoivent les substances à tester par administration intra péritonéale 30 à 60 minutes avant l'injection locale au niveau de la patte arrière gauche de 0,1 ml d'une suspension à 0,5 % de Carragénine dans du sérum physiologique stérile.
La patte arrière droite servant de témoin, reçoit une injection de sérum physiologique.
Trois heures après l'injection de la Carragénine, les animaux sont anesthésiés de façon profonde au Narcorem R et le volume des deux pattes arrières mesuré par Pléthysmographie
Les résultats sont exprimés en pourcentage de variation de volume v% : v% =(volume patte gauche - volume patte droite)/(volume patte droite) [formula] l'activité antiinflammatoire AAI% est définie par : [drawing 54]

rat = assay: Anxiolytic activity: elevated plus maze; format: in vivo; details: 60 min before test; for nb total d'entrées: 5 min test, control 14 ± 2; for % du temps passé dans le bras ouvert: control 22 % ± 5 %; for % d'entrées dans le bras ouvert: control 28 % ± 5 %
Method: Le potentiel anxiolytique de ces produits a été recherché selon le test "elevated plus maze".
Ce test permet d'étudier le comportement du rat, traité ou non, dans une situation de choix entre un espace clos rassurant ("bras clos") et un espace ouvert générateur d'anxiété ("bras ouvert").
Le test consiste à compter le nombre d'entrées dans chaque bras du labyrinthe durant 5 minutes et à mesurer le temps passé dans le "bras ouvert".
Les rats sont randomisés en lots de 8 et reçoivent les produits à tester par administration intrapéritonéale 60 minutes avant le début du test.

souris = assay: Analgesic activity: Acetic Acid Writhing test; format: in vivo; details: 50 mg/Kg intraperitoneal, 30 min before 0,3 cm³ acetic acid 1% i.p.; control 23 ± 14
Method: Le potentiel analgésique de ces produits a été recherché selon le test dit "Acetic Acid Writhing" qui est basé sur le comptage des crampes abdominales induites chez la souris par injection intra péritonéale d'acide acétique (GAIRIN et Coll J. Pharmacol. Exp. Ther 245, 955 (1988))
Les souris randomisées en lots de 10 reçoivent les produits à tester par voie intra péritonéale 30 minutes avant l'administration intra péritonéale de 0,3 cm³ d'acide acétique à 1%
Le nombre de crampes est compté entre la 5ème et 20ème minutes après l'injection d'acide acétique.

Structure (SMILES)	AAI% ([1]; 25 mg/Kg intraperitoneal) [%]	nb total d'entrées (rat; 100mg/Kg IP)	% du temps passé dans le bras ouvert (rat; 100mg/Kg IP)	% d'entrées dans le bras ouvert (rat; 100mg/Kg IP)	AAI% ([1]; 50 mg/Kg intraperitoneal) [%]	Nombre de crampes par minute (entre la 5ème et la 20ème minutes) (souris)	nb total d'entrées (rat; 50 mg/Kg IP)	% du temps passé dans le bras ouvert (rat; 50 mg/Kg IP)	% d'entrées dans le bras ouvert (rat; 50 mg/Kg IP)
COC(=O)[C@@H]1Cc2c([nH]c3ccccc23)C2(CCN(C)CC2)N1 [[ 3-METHOXYCARBONYLE 1,2,3,4-TETRAHYDRO-β-CARBOLINE (3 S)]-1-SPIRO-4′- [ 1-METHYL PIPERIDINE]]	14	18 ± 1	41 % ± 4%	44 % ± 3%	–	–	–	–	–
COC(=O)[C@@H]1Cc2c([nH]c3ccccc23)C2(CCCCC2)N1 [[ 3-METHOXYCARBONYLE 1,2,3,4-TETRAHYDRO-β-CARBOLINE (3 S)]-1-SPIRO-CYCLOHEXANE]	–	–	–	–	14	1 ± 1	18 ± 2	40 % ± 6%	42 % ± 4%
